These results are taken from patent EP4653424A1, “PYRIDAZINONE PARP INHIBITOR, AND PREPARATION METHOD THEREFOR, AND PHARMACEUTICAL COMPOSITION AND USE THEREOF” (China Pharmaceutical University, priority 2023, dated 2024).

The test system of one series is Caco-2 cell. Put plainly: Caco-2 bidirectional (ABBA) permeability assay. In kind it is in vitro ADME. As to the method: (§1) Materials: test compounds I-A-1, I-A-2, and RBN-2397.
(§2) • (1) Caco-2 cell plating • 1. 600 µL of cell culture medium and 100 µL of cell culture medium were added to the wells of […], respectively; • 2. Before cell inoculation, Transwell was pre-incubated at 37 °C and 5% CO2 for 1 h; • 3. 100 µL of cell suspension (4 × 10^5 cells/mL) was seeded into the culture medium and cultured at 37 °C, 5% CO2, and 95% relative humidity for 14-21 days; • 4. The cell culture medium was replaced once every other day in the first 7 days, and once every day after day 7; • 5. The transepithelial electrical resistance (TEER) of the monolayer membrane was measured using EVOM3. • (2) ABBA process • 1. The plate was washed twice with pre-heated HBSS (10 mM HEPES, pH 7.4) and then incubated at 37 °C for 30 min. • 2. Test compounds were prepared in 1 mM DMSO and diluted 200-fold to 5 µM with HBSS (10 mM HEPES, pH 7.4) and HBSS (100 µM Lucifer Yellow, 10 mM HEPES, pH 7.4). • 3. Apical to basal direction: 200 µL of 5 µM working solution (100 µM Lucifer Yellow) was added to the apical compartment, and 600 µL of HBSS (10 mM HEPES, pH 7.4) was added to the basal compartment. • 4. Basal to apical direction: 600 µL of 5 µM working solution was added to the basal compartment, and 200 µL of HBSS (100 µM Lucifer Yellow, 10 mM HEPES, pH 7.4) was added to the apical compartment. • 5. 100 µL of 5 µM working solution was transferred to a sample plate containing 400 µL of cold methanol, and IS* was C0. • 6. The cell plate was incubated at 37 °C, 5% CO2, and 95% relative humidity for 2 h. • 7. 5 µL of the working solution was transferred from the apical compartment and the basal compartment to the plate. After 0.5 h of incubation, the 427 nm excitation values and 536 nm emission values were read by the Lucifer Yellow leakage detector. • 8. After 2 h of incubation, 100 µL of the solution was transferred from the apical and basal compartments with IS* to a sample plate containing 400 µL of cold methanol. • 9. The sample plate was centrifuged at 3220 g for 40 min. • 10. 100 µL of the supernatant was transferred to an assay plate containing an appropriate volume of water for LC-MS/MS analysis. • (3) Calculation
(§3) The apparent permeability coefficient (Papp, cm/s) and the efflux ratio were calculated using Microsoft Excel. Papp = (VA × Cacceptor × 100)/(Area × Time × Cinitial,donor) [formula] Efflux Ratio = (Papp(B−A))/(Papp(A−B)) [formula] Table 3. Physicochemical properties of test compounds
For orientation: Caco-2 cells form a polarised layer with tight junctions and transporters.

A further series concerns the target T1, PARP7 enzyme (Homo sapiens, UniProt Q7Z3E1).
T1 construct: purchased BPS Bioscience
T1 sequence (Q7Z3E1 1-657): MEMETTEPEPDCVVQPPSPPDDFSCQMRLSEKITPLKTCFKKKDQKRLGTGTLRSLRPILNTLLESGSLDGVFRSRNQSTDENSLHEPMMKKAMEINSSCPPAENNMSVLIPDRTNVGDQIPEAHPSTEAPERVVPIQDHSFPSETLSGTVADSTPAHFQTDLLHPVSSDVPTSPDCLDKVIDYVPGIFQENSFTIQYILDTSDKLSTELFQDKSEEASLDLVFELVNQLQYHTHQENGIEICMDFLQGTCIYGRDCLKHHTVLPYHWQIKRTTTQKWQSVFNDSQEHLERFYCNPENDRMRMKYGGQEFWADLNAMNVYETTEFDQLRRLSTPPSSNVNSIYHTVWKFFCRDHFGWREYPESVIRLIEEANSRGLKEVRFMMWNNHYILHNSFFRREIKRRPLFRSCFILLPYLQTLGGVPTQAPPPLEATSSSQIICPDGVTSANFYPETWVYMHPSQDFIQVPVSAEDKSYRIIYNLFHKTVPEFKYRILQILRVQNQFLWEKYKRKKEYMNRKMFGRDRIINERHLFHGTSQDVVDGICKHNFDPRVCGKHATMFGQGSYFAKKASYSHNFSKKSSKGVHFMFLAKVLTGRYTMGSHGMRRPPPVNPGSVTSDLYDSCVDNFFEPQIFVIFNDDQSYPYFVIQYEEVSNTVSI
Description: PARP7 Chemiluminescent Assay Kit enzyme inhibition assay. In kind it is biochemical. The following applies: for inhibition at 0.1 µM: compound at 100 nM. As to the method:
Example 60: Inhibitory activity of compounds against PARP7 enzyme
Materials: PARP7 Chemiluminescent Assay Kit, BPS Bioscience; DMSO, Sinopharm, Nivo, PerkinElmer.
Preparation of 10× PBS: 720 mg of KH2PO4, 45 g of NaCl, and 5.311 g of Na2HPO4·12H2O were dissolved in 500 mL of deionized water. The system was adjusted to pH 7.4, sterilized at 121 °C for 30 min, and cooled, and then preserved at 4 °C for later use.
Preparation of 1 × PBS: 10× PBS was diluted 10-fold with deionized water, i.e., 1 part of 10× PBS was diluted with 9 parts of deionized water.
Preparation of wash buffer: 1 × PBS containing 0.05% Tween-20.
Preparation of 1 × PARP buffer: (prepared right before use) 10× PARP buffer was diluted 10-fold with deionized water and placed on ice for later use.
According to the study requirements, the test compound was diluted to the desired concentration with 100% DMSO, and then diluted 10-fold with 1× PARP buffer to give a 10× compound working solution.
• a. 5× histone mixture was thawed on ice the day before the study; • b. 1× histone mixture was prepared by diluting 5× histone mixture into 1× histone mixture with 1× PBS; 25 µL of 1× histone mixture was added to each well of the test plate and incubated overnight at 4 °C; • c. 100 µL of the blocking buffer was taken per well and added to the test plate, and the plate was incubated at 25 °C for 90 min; • d. After the incubation was completed, the liquid in the test plate was discarded, and the plate was washed 3 times; • e. 2.5 µL of compound working solution was taken from each well and added to the test plate according to the experimental layout; a corresponding volume of 1× PARP buffer containing 10% DMSO was added to the positive control wells (Positive control), and a corresponding volume of 1× PARP buffer was added to the blank control wells (Blank); • f. After the enzyme was completely dissolved, the enzyme stock solution was diluted to 6 ng/µL with 1× PARP buffer; • g. The enzyme solution was added to a test well plate at 10 µL/well, and a corresponding volume of 1× PARP buffer was added to the blank control wells, where the enzyme amount was 60 ng/well. Note: this procedure should be performed on ice; • h. […] ELISA ECL Substrate A and ELISA ECL Substrate B in the kit were mixed in a ratio of 1:1, the mixed solution was added to the test plate at 50 µL/well, luminescence detection was immediately performed using Nivo, and the luminescence value (RLU) was read; • m. […] Enzyme inhibition = 1 - % Enzyme Activity; the IC 50 was calculated using GraphPad Prism 8.

Series [1] can be described thus: Caco-2 bidirectional (ABBA) permeability assay. The following applies: human, Caco-2. In kind it is in vitro ADME. On the procedure:
as §1, §2, §3

For orientation: efflux ratio means a quotient of directional permeabilities that is used to spot active efflux. On to `C[C@@H](COCCC(=O)N1CCN(c2ncc(C(F)(F)F)cn2)CC1)Nc1cn[nH]c(=O)c1C(F)(F)F` [RBN-2397, reference compound], for which, in the series on Caco-2 cell (Caco-2, summary in words), the membrane permeability result is recorded as “poor membrane permeability”. For the same molecule, in the series with Caco-2 cell (Papp(B-A)/Papp(A-B), Caco-2), the “efflux ratio” value was 5.9. Also, the “PappA→B (1E-6 cm/s)” value in the series with Caco-2 cell (apical to basal, 5 µM, 2 h, Caco-2) was 4.1 1E-6 cm/s. Moreover, the “PappB→A (1E-6 cm/s)” value in the series on Caco-2 cell (basal to apical, 5 µM, 2 h, Caco-2) is listed as 24 1E-6 cm/s.

In general, IC50 refers to the concentration at which inhibition is half-maximal. A word on the inhibition: it is the relative decrease from the control value, in per cent. Take `O=C(CCNc1cn[nH]c(=O)c1C(F)(F)F)c1ccccc1` [I-D-1, 5-((3-oxo-3-phenylpropyl)amino)-4-(trifluoromethyl)pyridazin-3(2 H)-one]: on PARP7 enzyme, the IC50 was below 100 nM and the inhibition at 0.1 µM was at least 50%.

As usually defined, the Papp A→B is how fast a substance crosses the layer from the apical side. What is called Papp B→A is how fast a substance crosses the layer from the basolateral side. `O=c1[nH]ncc(NCC#Cc2ccccc2C(F)(F)F)c1C(F)(F)F` [I-A-1, 4-trifluoromethyl-5-((3-(2-(trifluoromethyl)phenyl)prop-2-yn-1-yl)amino)pyridazin-3(2 H)-one]: on PARP7 enzyme, the IC50 is below 100 nM and the inhibition at 0.1 µM is at least 50%. Moreover, in series [1] (Papp(B-A)/Papp(A-B)), the efflux ratio at 2 h, 5 µM stood at 0.52. In series [1] (apical to basal, 5 µM, 2 h), this molecule yielded a Papp A→B at 2 h, 5 µM of 39.9 ×10⁻⁶ cm/s. In series [1] (basal to apical, 5 µM, 2 h), this molecule had a Papp B→A at 2 h, 5 µM of 20.9 ×10⁻⁶ cm/s. Besides, in the series with Caco-2 cell (Caco-2, summary in words), the efflux ratio entry was “lower efflux ratio” and the membrane permeability entry was “better membrane permeability”.
